Assay: Biotin-4-fluorescein (B4F) competition assay, binding affinity of chimeric proteins
Conditions: room temperature

binding behavior to biotin-4-fluorescein (fluorescence intensity, binding curve fits): equivalent binding behavior
Substance: commercial streptavidin: streptavidin (MP Biomedicals) [reference compound]
